Target: HydG (So HydG, WT HydG) (Shewanella oneidensis, UniProt Q8EAH9)
Test: X-band CW EPR of the [4Fe-4S]RS cluster
Type: binding
Details: pH 7.5, 10 K; [4Fe-4S]RS cluster site

C[S+](CC[C@H](N)C(=O)O)C[C@H]1O[C@@H](n2cnc3c(N)ncnc32)[C@H](O)[C@@H]1O (stereo partly drawn) [SAM, S-adenosyl-L-methionine]
X-band CW EPR of the [4Fe-4S]RS cluster: interaction between the HydG [4Fe–4S]RS cluster and the substrates, Tyr or SAM
